Source: patent US8231869B2, “Recombinant plasmin for opthalmic indications” (priority 2005, dated 2012)
Read-outs that look alike come from different tables or passages of the source. Where a SMILES comes first, the peptide text is derived from it. [ ]: non-standard residue; d: D form. The star is where a group is joined. pNA = O=[N+]([O-])c1ccc(N*)cc1

Experiments:
[1] = biological target: kringle 1 (of human plasminogen); conditions: literature value, et al., read-out: kringle 1 affinity for εACA (Kd), cited from earlier work
[2] = biological target: human micro-plasmin (plasmin lacking all five kringles) (Homo sapiens, UniProt P00747); test: Amidolytic activity, steady-state kinetics with substrate S-2251; format: biochemical; conditions: substrate S-2251, PBS buffer, pH 7.4, 25° C.
[3] = biological target: delta-plasmin (recombinant human plasmin deletion mutant, kringle 1-serine protease domain, deletion of K2-5; from delta-plasminogen SEQ ID NO: 2) (Homo sapiens, UniProt P00747, DELINS146-524/G536N/G539Q/K528E/L551R/N547D/P558L/Q559E/R549E/V538P/V557I); test: as above; format: biochemical; conditions: substrate S-2251, PBS buffer, pH 7.4, 25° C.
[4] = biological target: human plasmin (full-length; native human plasminogen SEQ ID NO: 4) (Homo sapiens, UniProt P00747); test: as above; format: biochemical; conditions: substrate S-2251, PBS buffer, pH 7.4, 25° C.
[5] = substrate: CC(C)C[C@H](NC(=O)[C@H](N)C(C)C)C(=O)N[C@@H](CCCCN)C(=O)Nc1ccc([N+](=O)[O-])cc1; test: purified protein, by the assay type; format: biochemical, human; conditions: other: substrate S-2251, PBS buffer, pH 7.4, 25° C.

delta-plasmin (recombinant human plasmin deletion mutant, kringle 1-serine protease domain, deletion of K2-5; from delta-plasminogen SEQ ID NO: 2), sequence (P00747 with tags, fused parts or gaps K528E/G536N/V538P/G539Q/N547D/R549E/L551R/V557I/P558L/Q559E limits assumed): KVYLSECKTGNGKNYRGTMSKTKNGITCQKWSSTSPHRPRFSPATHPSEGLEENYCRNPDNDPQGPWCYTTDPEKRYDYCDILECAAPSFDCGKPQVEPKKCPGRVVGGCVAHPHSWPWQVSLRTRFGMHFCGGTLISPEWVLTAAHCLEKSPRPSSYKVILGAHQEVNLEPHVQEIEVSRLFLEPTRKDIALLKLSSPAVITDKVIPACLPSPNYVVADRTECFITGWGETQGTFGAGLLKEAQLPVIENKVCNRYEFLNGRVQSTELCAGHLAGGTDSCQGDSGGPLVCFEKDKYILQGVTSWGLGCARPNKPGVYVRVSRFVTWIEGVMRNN
human plasmin (full-length; native human plasminogen SEQ ID NO: 4), sequence (P00747 97-580 partner limits assumed, one chain of several): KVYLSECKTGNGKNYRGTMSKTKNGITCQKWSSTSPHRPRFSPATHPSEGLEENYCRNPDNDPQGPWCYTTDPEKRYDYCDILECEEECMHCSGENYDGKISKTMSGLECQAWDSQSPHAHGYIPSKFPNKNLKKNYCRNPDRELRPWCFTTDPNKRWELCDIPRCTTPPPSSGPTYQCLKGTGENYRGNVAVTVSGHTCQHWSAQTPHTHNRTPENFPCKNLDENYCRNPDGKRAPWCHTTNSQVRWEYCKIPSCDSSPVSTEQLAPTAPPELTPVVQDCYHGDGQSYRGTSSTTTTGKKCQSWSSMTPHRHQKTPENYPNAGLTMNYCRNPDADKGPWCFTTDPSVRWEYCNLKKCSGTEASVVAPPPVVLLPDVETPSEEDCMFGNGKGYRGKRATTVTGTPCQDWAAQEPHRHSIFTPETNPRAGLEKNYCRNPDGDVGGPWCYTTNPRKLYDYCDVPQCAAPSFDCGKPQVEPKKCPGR

| Molecule | Km [5] | kcat [5] | other results |
| --- | --- | --- | --- |
| NCCCCCC(=O)O [εACA, ε-aminocaproic acid] |  |  | Kd ([1]; Douglas): 13 µM; Kd ([1]; Matsuka): 3.2 µM |
| CC(C)C[C@H](NC(=O)[C@H](N)C(C)C)C(=O)N[C@@H](CCCCN)C(=O)Nc1ccc([N+](=O)[O-])cc1 [S-2251, D-Val-Leu-Lys-p-nitroanilide] (H-[dV]-Leu-Lys-pNA) |  |  | kcat [2]: 13.2 ± 0.4 s⁻¹; kcat ([3]; corrected for percent active sites (67%, PNPGB titration)): 12.6 ± 0.75 s⁻¹; kcat (for the preparation) ([3]; not corrected for percent active sites): 8.5 s⁻¹; kcat [4]: 12.7 ± 0.383 s⁻¹ |
| human plasmin (full-length; native human plasminogen SEQ ID NO: 4) (Homo sapiens) (protein, The C-terminal light chain of plasmin (residues 562-791); The amino-terminal heavy chain of plasmin) VVGGCVAHPHSWPWQVSLRTRFGMHFCGGTLISPEWVLTAAHCLEKSPRPSSYKVILGAHQEVNLEPHVQEIEVSRLFLEPTRKDIALLKLSSPAVITDKVIPACLPSPNYVVADRTECFITGWGETQGTFGAGLLKEAQLPVIENKVCNRYEFLNGRVQSTELCAGHLAGGTDSCQGDSGGPLVCFEKDKYILQGVTSWGLGCARPNKPGVYVRVSRFVTWIEGVMRNN | 193 +/− 7 μM μM | 760 +/− 23 min^−1 min^−1 |  |
| human micro-plasmin (plasmin lacking all five kringles) (Homo sapiens) (protein, micro-plasmin (lacking all five kringles)) VVGGCVAHPHSWPWQVSLRTRFGMHFCGGTLISPEWVLTAAHCLEKSPRPSSYKVILGAHQEVNLEPHVQEIEVSRLFLEPTRKDIALLKLSSPAVITDKVIPACLPSPNYVVADRTECFITGWGETQGTFGAGLLKEAQLPVIENKVCNRYEFLNGRVQSTELCAGHLAGGTDSCQGDSGGPLVCFEKDKYILQGVTSWGLGCARPNKPGVYVRVSRFVTWIEGVMRNN | 145 +/− 13 μM μM | 795 +/− 24 min^−1 min^−1 |  |
| human mini-plasmin (plasmin fragment, domain composition K5-SP; mini-plasminogen residues Val443-Asn791) (Homo sapiens) (protein, includes residues Val443-Asn791 and consists of the fifth kringle and the serine protease domain) VVGGCVAHPHSWPWQVSLRTRFGMHFCGGTLISPEWVLTAAHCLEKSPRPSSYKVILGAHQEVNLEPHVQEIEVSRLFLEPTRKDIALLKLSSPAVITDKVIPACLPSPNYVVADRTECFITGWGETQGTFGAGLLKEAQLPVIENKVCNRYEFLNGRVQSTELCAGHLAGGTDSCQGDSGGPLVCFEKDKYILQGVTSWGLGCARPNKPGVYVRVSRFVTWIEGVMRNN | 160 +/− 30 μM μM | 770 +/− 70 min^−1 min^−1 |  |
